From PubChem BioAssay (NCI)
Values joined by “and” are separate entries in the source; they are usually repeats but may differ in a detail not shown here. Identical values can stand only once.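 Method: 48-hour compound exposure of cells in 96-well plates, five concentrations, linear interpolation of endpoints. Abbreviation: GI50, concentration required for 50% inhibition of growth. Definition used: TGI = concentration required for complete inhibition of growth.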 Where a SMILES comes first, the peptide text is derived from it. [ ]: non-standard residue; d: D form. The star is where a group is joined. X28 = COC1=CC(=O)N(C(=O)[C@@H](O*)C(C)C)[C@H]1Cc1ccccc1; NMeL = CN[C@@H](CC(C)C)C(=O)O; Cbz = O=C(OCc1ccccc1)*

Experiments:
Assay in all cases: inhibition of tumour cell growth, NCI panel, 48 h
[1] = test system: BT-549 breast
[2] = test system: CAKI-1 renal
[3] = test system: HCC-2998 colon
[4] = test system: HOP-62 NSCLC
[5] = test system: HS 578T breast
[6] = test system: RXF 393 renal
[7] = test system: SK-MEL-5 melanoma
[8] = test system: SNB-75 CNS
[9] = test system: MOLT-4 leukemia

Compound: C[N+](C)(N)Cc1csc(-c2ccc(Cl)cc2)n1
- TGI [1]: > 100 µM
- TGI [2]: > 100 µM
- TGI [3]: > 100 µM
- TGI [4]: > 100 µM
- TGI [5]: > 100 µM
- TGI [6]: > 100 µM
- TGI [7]: > 100 µM
- TGI [8]: > 100 µM

Compound: COC1=CC(=O)N(C(=O)[C@@H](OC(=O)[C@@H]2CCCN2C(=O)[C@@H]2CCCN2C(=O)[C@H](CC(C)C)N(C)C(=O)[C@@H](NC(=O)[C@@H](NC(=O)OCc2ccccc2)C(C)C)C(C)C)C(C)C)[C@H]1Cc1ccccc1 (Cbz-VV[NMeL]PP-X28)
- TGI [1]: > 100 µM
- TGI [2]: > 100 µM
- TGI [3]: > 100 µM
- TGI [4]: > 100 µM
- TGI [5]: > 100 µM
- TGI [6]: 38.9 µM
- TGI [8]: 9.27 µM

Compound: COc1cc(C(=O)OC2CC(C)=CC[C@@]3(C)CC[C@](O)(C(C)C)C23)ccc1O (stereo partly specified)
- TGI [2]: 30.4 µM
- TGI [3]: 28.8 µM
- TGI [4]: 32.4 µM
- TGI [5]: 40.9 µM
- TGI [9]: 40.6 µM
- TGI [6]: 35.4 µM
- TGI [7]: 32.8 µM
- TGI [8]: 33.5 µM

Compound: Cc1ccc(C(=O)/C=C/N2CCN(c3cccc(C(F)(F)F)c3)CC2)cc1
- TGI [2]: 37 µM
- TGI [3]: 25.5 µM
- TGI [4]: 37.4 µM
- TGI [5]: 51.4 µM
- TGI [9]: 48.2 µM
- TGI [6]: 33.1 µM
- TGI [7]: 29.2 µM
- TGI [8]: 34.7 µM

Compound: CC(C)(CO)NC(=O)c1cccc(C(=O)NC(C)(C)CO)c1Br
- TGI [1]: > 100 µM
- TGI [2]: > 100 µM
- TGI [3]: > 100 µM
- TGI [4]: > 100 µM
- TGI [9]: > 100 µM
- TGI [6]: > 100 µM
- TGI [7]: > 100 µM
- TGI [8]: > 100 µM

Compound: CCC(C)N1CN(c2ccccc2)C2(CCN(CCCC(=O)c3ccc(F)cc3)CC2)C1=O (stereo unspecified)
- TGI [1]: 26 µM
- TGI [2]: 26.8 µM
- TGI [4]: 4.51 µM
- TGI [5]: 36.4 µM
- TGI [9]: 23.2 µM
- TGI [6]: 30 µM
- TGI [7]: 9.61 µM
- TGI [8]: 38.3 µM

Compound: O=C(O)C1Cc2ccccc2OC1=O (stereo unspecified)
- TGI [1]: > 100 µM
- TGI [2]: > 100 µM
- TGI [3]: > 100 µM
- TGI [4]: > 100 µM
- TGI [5]: > 100 µM
- TGI [9]: > 100 µM
- TGI [6]: > 100 µM
- TGI [7]: > 100 µM

Compound: COc1ccc(-c2c(C(C)=O)c(-c3ccccc3)n(C3OC(COC(C)=O)C(OC(C)=O)C(OC(C)=O)C3OC(C)=O)c(=S)c2C#N)cc1O (stereo unspecified)
- TGI [1]: 72.2 µM
- TGI [2]: > 100 µM
- TGI [3]: 42 µM and 80.5 µM
- GI50 [4]: 20.1 µM and > 100 µM
- TGI [4]: 45.6 µM and > 100 µM
- TGI [5]: > 100 µM
- GI50 [9]: 18.2 µM and 52.8 µM
- TGI [9]: > 100 µM
- TGI [6]: > 100 µM
- TGI [7]: > 100 µM

Compound: O=C(O)C1(CC(CCCN2CCCCC2)c2ccccc2)CCCC1 (stereo unspecified)
- TGI [2]: > 100 µM
- TGI [3]: > 100 µM
- TGI [4]: > 100 µM
- TGI [5]: > 100 µM
- TGI [9]: > 100 µM
- TGI [6]: > 100 µM
- TGI [7]: > 100 µM
- TGI [8]: > 100 µM

Compound: CCC(c1nc2ccccc2c(=O)n1NC(=O)C(C)(C)C)C1(O)CCCCC1 (stereo unspecified)
- TGI [1]: > 100 µM
- TGI [2]: > 100 µM
- TGI [4]: > 100 µM
- TGI [5]: > 100 µM
- TGI [9]: > 100 µM
- TGI [6]: > 100 µM
- TGI [7]: > 100 µM
- TGI [8]: > 100 µM

Compound: CNc1nc(=O)c(C#N)c(-c2ccc(C)cc2)s1
- TGI [1]: > 100 µM
- TGI [2]: > 100 µM
- TGI [3]: > 100 µM
- TGI [9]: > 100 µM
- TGI [6]: > 100 µM
- TGI [7]: > 100 µM
- TGI [8]: > 100 µM

Compound: FC(F)(F)c1nc2cc(SSc3cc4nc(C(F)(F)F)[nH]c4cc3Cl)c(Cl)cc2[nH]1
- TGI [1]: > 100 µM
- TGI [2]: > 100 µM
- TGI [3]: > 100 µM
- TGI [4]: > 100 µM
- TGI [5]: > 100 µM
- TGI [9]: > 100 µM
- TGI [6]: > 100 µM
- TGI [7]: > 100 µM

Compound: Cc1ccc(-c2nc3n(c2/C=N\N=C(N)N)CCS3)cc1
- TGI [2]: 34 µM
- TGI [3]: 24.2 µM
- TGI [4]: 28.6 µM
- TGI [5]: 41.4 µM
- TGI [9]: > 100 µM
- TGI [6]: 29.6 µM
- TGI [7]: 27.2 µM
- TGI [8]: 23.2 µM

Compound: O=C(OCc1c(-c2ccccc2)nn(-c2ccccc2)c1COC(=O)Oc1ccccc1)Oc1ccccc1
- TGI [2]: > 100 µM
- TGI [3]: > 100 µM
- TGI [4]: > 100 µM
- TGI [5]: > 100 µM
- TGI [9]: > 100 µM
- TGI [6]: > 100 µM
- TGI [7]: > 100 µM
- TGI [8]: > 100 µM

Compound: COC(=O)C1=C2Nc3ccccc3C23CCN2C(O)C4(CC5CC67CCOC6CCN6CCC8(c9cccc(OC)c9N(C4)C58O)C67)C4OCCC4(C1)C23 (stereo unspecified)
- TGI [1]: > 100 µM
- TGI [2]: > 100 µM
- TGI [3]: > 100 µM
- TGI [4]: > 100 µM
- TGI [5]: 77.5 µM
- TGI [6]: > 100 µM
- TGI [7]: > 100 µM
- TGI [8]: 68.3 µM

Compound: CCN(CC)CCNc1ccc2nnn3c4ccc(OC(C)=O)cc4c(=O)c1c23
- TGI [1]: 27.2 µM
- TGI [2]: 3.31 µM
- TGI [3]: 17.4 µM
- TGI [4]: 12.5 µM
- TGI [5]: 19.1 µM
- TGI [6]: 6.19 µM
- TGI [7]: 11.2 µM

Compound: COc1ccc(CCNC(=S)/N=C\C2=C(O)c3ccccc3C2=O)cc1OC
- TGI [2]: > 100 µM
- TGI [3]: > 100 µM
- TGI [4]: > 100 µM
- TGI [5]: 72.7 µM
- TGI [9]: > 100 µM
- TGI [6]: > 100 µM
- TGI [7]: > 100 µM
- TGI [8]: > 100 µM

Compound: CC(=N\N=C\c1ccccn1)/C(C)=N/N=C/c1ccccn1
- TGI [1]: > 100 µM
- TGI [2]: > 100 µM
- TGI [3]: > 100 µM
- TGI [4]: > 100 µM
- TGI [5]: > 100 µM
- TGI [6]: > 100 µM
- TGI [7]: > 100 µM
- TGI [8]: > 100 µM

Compound: CC(=O)O[C@@H]1CC2[C@@H](CCC3Cc4nc5c(nc4C[C@@]32C)CC2CC[C@@H]3C(CC[C@@]4(C)C3CC[C@@H]4C(C)CCCC(C)C)[C@@]2(C)C5)C2C[C@@H]3OC4(CCC(C)CO4)C(C)[C@@H]3[C@]21C (stereo partly specified)
- TGI [1]: > 100 µM
- TGI [3]: > 100 µM
- TGI [4]: > 100 µM
- TGI [5]: 96.4 µM
- TGI [9]: > 100 µM
- TGI [6]: 50.3 µM
- TGI [7]: > 100 µM
- TGI [8]: 37.2 µM

Compound: C[n+]1c(-c2ccc(/C=N/Nc3n[nH]c(=S)n3N/N=C/c3ccc(-c4cn5ccccc5[n+]4C)cc3)cc2)cn2ccccc21
- TGI [3]: > 100 µM
- TGI [4]: > 100 µM
- TGI [5]: > 100 µM
- TGI [9]: > 100 µM
- TGI [7]: > 100 µM
- TGI [8]: > 100 µM

Compound: CC1(C)CC(=O)C2=C(C1)N(c1ccccc1)C1(O)C=CC(=O)C3=C(O)c4ccccc4C(=O)C321 (stereo unspecified)
- TGI [1]: 67.9 µM
- TGI [2]: 86 µM
- TGI [3]: 78.2 µM
- TGI [4]: > 100 µM
- TGI [9]: > 100 µM
- TGI [6]: 39.6 µM
- TGI [8]: 48.6 µM

Compound: Cc1noc(C)c1N=Nc1ccc2nonc2c1N
- TGI [2]: > 100 µM
- TGI [3]: > 100 µM
- TGI [4]: > 100 µM
- TGI [9]: > 100 µM
- TGI [6]: > 100 µM
- TGI [7]: > 100 µM
- TGI [8]: 42.2 µM

Compound: OC1NC2CC3NC(O)C(O)NC3CC2NC1O (stereo unspecified)
- TGI [2]: > 100 µM
- TGI [3]: > 100 µM
- TGI [4]: > 100 µM
- TGI [5]: > 100 µM
- TGI [9]: > 100 µM
- TGI [6]: > 100 µM
- TGI [7]: > 100 µM
- TGI [8]: > 100 µM

Compound: N#CCCCCC12C3C(=O)N(c4ccccc4)C(=O)C3ON1O[C@@H]1C(=O)N(c3ccccc3)C(=O)[C@@H]12 (stereo partly specified)
- TGI [1]: > 100 µM
- TGI [2]: > 100 µM
- TGI [3]: > 100 µM
- TGI [4]: > 100 µM
- TGI [5]: > 100 µM
- TGI [9]: > 100 µM
- TGI [7]: > 100 µM
